Drawing on patent US20060106048A1, “Furoisoquinoline derivative and use thereof” (priority 2002, published 2006), this text covers IC50 for 14 compounds.

As a reminder, the IC50 is the concentration that gives 50% inhibition.

The target in this test is T1, recombinant human brain-derived phosphodiesterase 4D3 (Homo sapiens, UniProt Q08499).
T1 construct: GST; made in house; host or cells: Escherichia coli BL21/pPDE4D3 (FERM BP-7075)
Description: Assay of phosphodiesterase IV-inhibiting action (SPA, [3H]cAMP). The class given is biochemical. The settings on record: recombinant human brain-derived phosphodiesterase 4D3, [3H]cAMP, 30 minutes at 30° C.; activity without compound = 100%; read-out: Phosphodiesterase 4D inhibiting action (IC50). The source says: Assay of Phosphodiesterase IV-Inhibiting Action
(1) Expression of Recombinant Human Brain-Derived Phosphodiesterase 4D3 in Escherichia coli and Purification Thereof.
Using the Escherichia coli BL21/pPDE4D3 (FERM BP-7075) producing recombinant human brain-derived phosphodiesterase 4D3, a recombinant human brain-derived phosphodiesterase 4D3 was obtained. The expression and purification of E. coli were in accordance with the protocol attached to GST Gene Fusion System (Pharmacia).
(2) Assay of Phosphodiesterase IV-Inhibiting Action
To a 96-well plate (OPTI plate, Packard), 10 μl of a buffer solution [0.5 M Tris-HCl (pH 7.5), 83 mM MgCl2, 17 mM EGTA], 10 μl of the recombinant human brain-derived phosphodiesterase 4D3 (0.0034 mg/ml) obtained in Section (1) described above, 65 μl of Ultrapure water, 5 μl of an inhibitor sample and 10 μl of [^3H] cAMP were added and reacted for 30 minutes at 30° C. After completing the reaction, 50 μl of SPA beads solution [18 mg/ml Yttrium silicate beads, 18 mM ZnSO4] was added thereto, and the mixture was allowed to stand at room temperature for about 20 minutes. The radioactivity was counted using a scintillation counter (Topcount, Packard). Inhibiting activity of the compound against recombinant human brain-derived phosphodiesterase 4D3 was calculated, based on that enzymatic activity under absence of the compound was 100%.

Where a name gives a salt, the structure may show the parent alone.

T1 sequence (Q08499 1-673 isoform Q08499-2): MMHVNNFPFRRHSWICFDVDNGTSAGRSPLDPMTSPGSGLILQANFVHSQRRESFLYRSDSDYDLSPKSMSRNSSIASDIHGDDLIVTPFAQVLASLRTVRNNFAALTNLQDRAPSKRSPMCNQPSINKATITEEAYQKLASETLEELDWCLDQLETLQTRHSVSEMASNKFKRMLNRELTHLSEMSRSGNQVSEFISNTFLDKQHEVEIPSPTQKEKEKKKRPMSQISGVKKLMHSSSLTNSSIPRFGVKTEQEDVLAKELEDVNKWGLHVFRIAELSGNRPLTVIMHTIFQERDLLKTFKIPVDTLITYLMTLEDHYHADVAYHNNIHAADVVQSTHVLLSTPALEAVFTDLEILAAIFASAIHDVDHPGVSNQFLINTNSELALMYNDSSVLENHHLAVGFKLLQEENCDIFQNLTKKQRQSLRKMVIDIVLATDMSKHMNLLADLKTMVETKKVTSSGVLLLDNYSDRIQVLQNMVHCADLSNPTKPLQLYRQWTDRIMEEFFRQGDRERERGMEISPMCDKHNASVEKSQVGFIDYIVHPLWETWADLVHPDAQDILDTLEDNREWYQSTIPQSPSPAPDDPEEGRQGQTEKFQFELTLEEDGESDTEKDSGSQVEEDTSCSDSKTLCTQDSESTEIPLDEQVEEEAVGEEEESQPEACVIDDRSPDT

On to `CCOc1cc2c(c3c1OC(C)(C)C3)C(c1ccc(C(=O)O)c(NCc3ccccc3)c1)=NC(C)(C)C2` [Example 6, 4-(6-Ethoxy-3,4,8,9-tetrahydro-3,3,8,8-tetramethylfuro[2,3-h]isoquinolin-1-yl)-2-[(phenylmethyl)amino]benzoic acid], for which the IC50 came out at 0.566 nM.

For `CCOc1cc2c(c3c1OC(C)(C)C3)C(c1ccc(C(=O)OC)c(NC(C)=O)c1)=NC(C)(C)C2` [Example 17, Methyl 2-(acetylamino)-4-(6-ethoxy-3,4,8,9-tetrahydro-3,3,8,8-tetramethylfuro[2,3-h]isoquinolin-1-yl)benzoate], the IC50 came to 4.01 nM.

As to `CCOc1cc2c(c3c1OC(C)(C)C3)C(c1ccc(C(=O)OC)c(NC(=O)c3ccccn3)c1)=NC(C)(C)C2` [Example 21, Methyl 4-(6-ethoxy-3,4,8,9-tetrahydro-3,3,8,8-tetramethylfuro[2,3-]isoquinolin-1-yl)-2-[(2-pyridinylcarbonyl)amino]benzoate], the IC50 is 1.89 nM.

On to `CCOc1cc2c(c3c1OC(C)(C)C3)C(c1ccc(C(N)=O)c(NC(=O)c3ccccn3)c1)=NC(C)(C)C2` [Example 23, N-[2-(Aminocarbonyl)-5-(6-ethoxy-3,4,8,9-tetrahydro-3,3,8,8-tetramethylfuro[2,3-h]isoquinolin-1-yl)phenyl]-2-pyridinecarboxamide], for which the IC50 came out at 0.756 nM.

With `CCOc1cc2c(c3c1OC(C)(C)C3)C(c1ccc(C(=O)O)c(NC(=O)c3ccc4ccccc4n3)c1)=NC(C)(C)C2` [Example 30, 4-(6-Ethoxy-3,4,8,9-tetrahydro-3,3,8,8-tetramethylfuro[2,3-h]isoquinolin-1-yl)-2-[(2-quinolinylcarbonyl)amino]benzoic acid], the IC50 amounted to 0.761 nM.

On to `CCNc1cc(C2=NC(C)(C)Cc3cc(OCC)c4c(c32)CC(C)(C)O4)ccc1C(=O)O` [Example 50, 4-(6-Ethoxy-3,4,8,9-tetrahydro-3,3,8,8-tetramethylfuro[2,3-h]isoquinolin-1-yl)-2-(ethylamino)benzoic acid], for which the IC50 is 8.4 nM.

For the compound `CCOc1cc2c(c3c1OC(C)(C)C3)C(c1ccc(C(=O)NC)c(NC(=O)c3ccccc3)c1)=NC(C)(C)C2` [Example 57, 2-(Benzoylamino)-4-(6-ethoxy-3,4,8,9-tetrahydro-3,3,8,8-tetramethylfuro[2,3-h]isoquinolin-1-yl)-N-methylbenzamide], the IC50 came out at 1.63 nM.

As to `CCOc1cc2c(c3c1OC(C)(C)C3)C(c1ccc(C#N)c(NCc3ccccc3)c1)=NC(C)(C)C2` [Example 74, 4-(6-Ethoxy-3,4,8,9-tetrahydro-3,3,8,8-tetramethylfuro[2,3-h]isoquinolin-1-yl)-2-[(phenylmethyl)amino]benzonitrile], the IC50 came to 1.71 nM.

For the compound `CCOc1cc2c(c3c1OC(C)(C)C3)C(c1ccc(/C=C/C(=O)O)c(OC)c1)=NC(C)(C)C2` [Example 85, (E)-3-[4-(6-Ethoxy-3,4,8,9-tetrahydro-3,3,8,8-tetramethylfuro[2,3-h]isoquinolin-1-yl)-2-methoxyphenyl]-2-propenoic acid], the IC50 came out at 5.5 nM.

In the case of `CCOc1cc2c(c3c1OC(C)(C)C3)C(c1ccc(COCC(=O)OC)cc1)=NC(C)(C)C2` [Example 94, Methyl [[4-(6-ethoxy-3,4,8,9-tetrahydro-3,3,8,8-tetramethylfuro[2,3-h]isoquinolin-1-yl)phenyl]methoxy]acetate hydrochloride], the IC50 was found to be 3.27 nM.

As for `CCOc1cc2c(c3c1OC(C)(C)C3)C(c1ccc(COCC(=O)O)cc1)=NC(C)(C)C2` [Example 95, [[4-(6-Ethoxy-3,4,8,9-tetrahydro-3,3,8,8-tetramethylfuro[2,3-h]isoquinolin-1-yl)phenyl]methoxy]acetic acid hydrochloride], the IC50 came out at 10.9 nM.

With `CCOc1cc2c(c3c1OC(C)(C)C3)C(c1ccc(C(C)(C)C(=O)O)cc1)=NC(C)(C)C2` [Example 118, 4-(6-Ethoxy-3,4,8,9-tetrahydro-3,3,8,8-tetramethylfuro[2,3-h]isoquinolin-1-yl)-α,α-dimethylbenzeneacetic acid hydrochloride hydrate], the IC50 was 11.5 nM.

On to `CCOc1cc2c(c3c1OC(C)(C)C3)C(c1ccc(C(C)(C)C(N)=O)cc1)=NC(C)(C)C2` [Example 120, 4-(6-Ethoxy-3,4,8,9-tetrahydro-3,3,8,8-tetramethylfuro[2,3-h]isoquinolin-1-yl)-α,α-dimethylbenzeneacetamide], for which the IC50 came out at 3.5 nM.

On to `CCOc1cc2c(c3c1OC(C)(C)C3)C(c1ccc(CC(=O)O)c(NC(=O)c3ccccn3)c1)=NC(C)(C)C2` [Example 124, 4-(6-Ethoxy-3,4,8,9-tetrahydro-3,3,8,8-tetramethylfuro[2,3-h]isoquinolin-1-yl)-2-[(2-pyridinylcarbonyl)amino]benzeneacetic acid], for which the IC50 is 0.637 nM.
